This note sets out measurements from patent publication US12097261B2, “CDK2 degraders and uses thereof” (Kymera Therapeutics, Inc., priority 2021, dated 2024).

The target of one experiment is T1, CDK1 (Homo sapiens, UniProt P06493).
T1 construct: endogenous in cells; host or cells: OVCAR-8
Description: CDK1 degradation by immunoblotting in OVCAR-8 cells. The experiment is classed as cell-based. The following applies: 24 h. On the procedure: (§1) CDK2 and CDK1 Degradation by Immunoblotting
(§2) Ovarian cancer cell line OVCAR-8 were cultured in 12-well plates in complete growth medium. A serial dilution of each compound was added to individual wells from a 2× stock solution, and cells were cultured for 24 hours. Cells were collected by centrifugation, and cell pellets lysed with addition of chilled RIPA buffer supplemented with protease/phosphatase inhibitors followed by incubation for 20 minutes on ice. Lysates were clarified by centrifugation and 5×SDS loading buffer was added to the supernatant followed by heating to 100° C. for 10 minutes. An aliquot of the samples were separated by SDS-PAGE and transferred to a nitrocellulose membrane. Immunoblotting was performed according to standard procedures using anti-CDK2 primary antibody (Abcam ab32147) at 1:1000 dilution and IRDye 800CW goat anti-Rabbit secondary antibody (LICOR) and imaged using a LICOR Odyssey instrument. Blots were stained with anti-beta-Actin primary antibody (Cell Signaling Technology mAb #4970) for normalization. The normalized CDK2/Actin values were calculated as a percent of DMSO treated cells and plotted to determine the concentration at which 50% of CDK2 signal is decreased (DC50). The determination of CDK1 degradation was determined similarly using anti-CDK1 primary antibody (Abcam ab131450).

A further experiment addresses T2, CDK2 (Homo sapiens, UniProt P24941).
T2 construct: endogenous in cells; host or cells: OVCAR-8
Description: CDK2 degradation by immunoblotting in OVCAR-8 cells. The experiment is classed as cell-based. The following applies: for DC50: 24 h. On the procedure:
as §1, §2

T1 sequence (P06493 whole entry): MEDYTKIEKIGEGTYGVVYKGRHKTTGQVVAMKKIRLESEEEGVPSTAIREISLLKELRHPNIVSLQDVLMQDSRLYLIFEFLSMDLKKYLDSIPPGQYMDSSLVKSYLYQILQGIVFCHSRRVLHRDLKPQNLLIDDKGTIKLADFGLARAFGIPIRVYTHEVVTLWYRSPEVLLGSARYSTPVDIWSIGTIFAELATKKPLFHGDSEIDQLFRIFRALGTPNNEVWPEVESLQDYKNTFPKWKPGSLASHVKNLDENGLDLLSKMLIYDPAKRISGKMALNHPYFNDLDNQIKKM

Take `Cc1cc(S(=O)(=O)NCCOCCOCCCc2ccc3c(c2)n(C)c(=O)n3C2CCC(=O)NC2=O)ccc1Nc1ncc2cc(C(F)F)c(=O)n([C@@H]3CCC[C@@]3(C)O)c2n1` (stereo partly shown) [I-5]: the DC50 was above 5000 nM on CDK1 and below 10 nM at CDK2. In the case of `Cc1cc(S(=O)(=O)NCCOCCOCCOCCOCCCc2ccc3c(c2)n(C)c(=O)n3C2CCC(=O)NC2=O)ccc1Nc1ncc2cc(C(F)F)c(=O)n([C@@H]3CCC[C@@]3(C)O)c2n1` (stereo partly shown) [I-7], the results for the DC50 on CDK1 and on CDK2 were above 5000 nM and below 10 nM, respectively.

With `Cc1cc(S(=O)(=O)NCCOCCOCCCc2cccc3c2n(C)c(=O)n3C2CCC(=O)NC2=O)ccc1Nc1ncc2cc(C(F)F)c(=O)n([C@@H]3CCC[C@@]3(C)O)c2n1` (stereo partly shown) [I-8], the DC50 at CDK1 was above 5000 nM; on CDK2, 10 to 100 nM.

As for `C[C@@]1(O)CCC[C@H]1n1c(=O)c(C(F)F)cc2cnc(NC3CCN(S(=O)(=O)CCCCCCCCCCNc4cccc5c4C(=O)N(C4CCC(=O)NC4=O)C5=O)CC3)nc21` (stereo partly shown) [I-15], the DC50 at CDK1 was in the range of 100 to 1000 nM; at CDK2, 10 to 100 nM. The like results for `Cc1cc(S(=O)(=O)NCCOCCOCCOCCOCCNc2cccc3c2C(=O)N(C2CCC(=O)NC2=O)C3=O)ccc1Nc1ncc2cc(C(F)F)c(=O)n([C@@H]3CCC[C@@]3(C)O)c2n1` (stereo partly shown) [I-17] were, in that order, above 5000 nM and 10 to 100 nM. For the compound `Cn1c(=O)n(C2CCC(=O)NC2=O)c2ccc(CCCOCCOCCOCCOCC(=O)N3CCC(Nc4ncc5cc(C(F)F)c(=O)n([C@@H]6CCC[C@@]6(C)O)c5n4)CC3)cc21` (stereo partly shown) [I-20], the “CDK2 DC50, (OVCAR-8, 24 h)” value on CDK2 was “inactive”. On the same count and under the same terms, to `Cn1c(=O)n(C2CCC(=O)NC2=O)c2cccc(CCCOCCOCCOCCOCC(=O)N3CCC(Nc4ncc5cc(C(F)F)c(=O)n([C@@H]6CCC[C@@]6(C)O)c5n4)CC3)c21` (stereo partly drawn) [I-21, 3-(4-(1-(4-((6-(Difluoromethyl)-8-((1R,2R)-2-hydroxy-2-methylcyclopentyl)-7-oxo-7,8-dihydropyrido[2,3-d]pyrimidin-2-yl)amino)piperidin-1-yl)-1-oxo-3,6,9,12-tetraoxapentadecan-15-yl)-3-methyl-2-oxo-2,3-dihydro-1H-benzo[d]imidazol-1-yl)piperidine-2,6-dione] belongs “inactive”. With `Cn1c(=O)n(C2CCC(=O)NC2=O)c2ccc(CCCCCCCCC(=O)N3CCC(Nc4ncc5cc(C(F)F)c(=O)n([C@@H]6CCC[C@@]6(C)O)c5n4)CC3)cc21` (stereo partly shown) [I-22], on CDK2, the “CDK2 DC50, (OVCAR-8, 24 h)” value is “inactive”. As for `Cn1c(=O)n(C2CCC(=O)NC2=O)c2cccc(CCCCCCCCC(=O)N3CCC(Nc4ncc5cc(C(F)F)c(=O)n([C@@H]6CCC[C@@]6(C)O)c5n4)CC3)c21` (stereo partly shown) [I-23], the “CDK2 DC50, (OVCAR-8, 24 h)” value at CDK2 was “inactive”. Still for that read-out and setting: to `C[C@@]1(O)CCC[C@H]1n1c(=O)c(C(F)F)cc2cnc(NC3CCN(C(=O)COCCOCCOCCOCCNc4cccc5c4C(=O)N(C4CCC(=O)NC4=O)C5=O)CC3)nc21` (stereo partly shown) [I-24] belongs “inactive”; to `Cn1c(=O)n(C2CCC(=O)NC2=O)c2ccc(CCCCCCCCCCCC(=O)N3CCC(Nc4ncc5cc(C(F)F)c(=O)n([C@@H]6CCC[C@@]6(C)O)c5n4)CC3)cc21` (stereo partly shown) [I-25], “inactive”; to `Cn1c(=O)n(C2CCC(=O)NC2=O)c2cccc(CCCCCCCCCCCC(=O)N3CCC(Nc4ncc5cc(C(F)F)c(=O)n([C@@H]6CCC[C@@]6(C)O)c5n4)CC3)c21` (stereo partly shown) [I-26], “inactive”. Still for that read-out and setting: to `C[C@@]1(O)CCC[C@H]1n1c(=O)c(C(F)F)cc2cnc(NC3CCN(C(=O)COCCOCCNc4cccc5c4C(=O)N(C4CCC(=O)NC4=O)C5=O)CC3)nc21` (stereo partly shown) [I-27] belongs “inactive”; to `C[C@@]1(O)CCC[C@H]1n1c(=O)c(C(F)F)cc2cnc(NC3CCN(C(=O)CCCCCCCNc4cccc5c4C(=O)N(C4CCC(=O)NC4=O)C5=O)CC3)nc21` (stereo partly shown) [I-28], “inactive”.

Take `Cn1c(=O)n(C2CCC(=O)NC2=O)c2cccc(CCCOCCOCC(=O)N3CCC(Nc4ncc5cc(C(F)F)c(=O)n([C@@H]6CCC[C@@]6(C)O)c5n4)CC3)c21` (stereo partly shown) [I-29]: the “CDK2 DC50, (OVCAR-8, 24 h)” value at CDK2 is “inactive”. As to `Cc1cc(S(=O)(=O)NCCOCCOCCOCCOCCCc2cccc3c2n(C)c(=O)n3C2CCC(=O)NC2=O)ccc1Nc1ncc(Br)c(Nc2cccc(F)c2C(N)=O)n1` (stereo not shown) [I-37, 2-((5-Bromo-2-((4-(N-(15-(1-(2,6-dioxopiperidin-3-yl)-3-methyl-2-oxo-2,3-dihydro-1H-benzo[d]imidazol-4-yl)-3,6,9,12-tetraoxapentadecyl)sulfamoyl)-2-methylphenyl)amino)pyrimidin-4-yl)amino)-6-fluorobenzamide], the DC50 fell in the range of 1000 to 5000 nM at CDK1 and 10 to 100 nM on CDK2. Regarding `CC(C)NC(=O)O[C@@H]1CC[C@H](c2cc(NC(=O)c3ccnn3CCOCCOCCOCCOCCCc3cccc4c3n(C)c(=O)n4C3CCC(=O)NC3=O)n[nH]2)C1` (stereo partly shown) [I-55], the DC50 on CDK1 was above 5000 nM; on CDK2 it was 10 to 100 nM. Taken in the same sequence, the figures for `CC(C)NC(=O)O[C@@H]1CC[C@H](c2cc(NC(=O)c3ccnn3CCOCCOCCOCCOCCCc3ccc4c(c3)n(C)c(=O)n4C3CCC(=O)NC3=O)n[nH]2)C1` (stereo partly shown) [I-59] were above 5000 nM and 10 to 100 nM. The like results for `CC(C)NC(=O)O[C@@H]1CC[C@H](c2cc(NC(=O)c3cnn(CCCCCCCCCCCc4cccn5c(N6CCC(=O)NC6=O)cnc45)c3)n[nH]2)C1` [I-64] were, in that order, 1000 to 5000 nM and 10 to 100 nM.

Regarding `CC(C)NC(=O)O[C@@H]1CC[C@H](c2cc(NC(=O)c3cnn(CCCCCCCCCC#Cc4cccc5c(N6CCC(=O)NC6=O)cncc45)c3)n[nH]2)C1` [I-67], the half-maximal degradation concentration (DC50) on CDK1 was 1000 to 5000 nM; on CDK2, 100 to 1000 nM. Taken in the same sequence, the figures for `CC(C)NC(=O)O[C@@H]1CC[C@H](c2cc(NC(=O)c3cnn(CCCCCCCCCC#Cc4cccn5c(N6CCC(=O)NC6=O)cnc45)c3)n[nH]2)C1` [I-68] were above 5000 nM and 10 to 100 nM. Taken in the same sequence, the figures for `CC(C)NC(=O)O[C@@H]1CC[C@H](c2cc(NC(=O)c3cnn(CCOCCOCCOCCCc4cccc5c4n(C)c(=O)n5C4CCC(=O)NC4=O)c3)n[nH]2)C1` (stereo partly shown) [I-72] were above 5000 nM and 10 to 100 nM.

On to `CC(C)NC(=O)O[C@@H]1CC[C@H](c2cc(CC(=O)c3cnn(CCOCCOCCOCCCc4ccc5c(N6CCC(=O)NC6=O)cncc5c4)c3)[nH]n2)C1` [I-73], for which the DC50 is above 5000 nM on CDK1 and 100 to 1000 nM at CDK2.

Turning to `CC(C)NC(=O)O[C@@H]1CC[C@H](c2cc(NC(=O)c3cnn(CCOCCOCCOCCCc4ccn5c(N6CCC(=O)NC6=O)cnc5c4)c3)n[nH]2)C1` [I-74], the values for the DC50 on CDK1 and on CDK2 were above 5000 nM and 100 to 1000 nM, respectively. `CC(C)NC(=O)O[C@@H]1CC[C@H](c2cc(NC(=O)c3cnn(CCOCCOCCOCCCc4ccc5c(c4)n(C)c(=O)n5C4CCC(=O)NC4=O)c3)n[nH]2)C1` (stereo partly shown) [I-75]: the DC50 on CDK1 was above 5000 nM; at CDK2, 10 to 100 nM. Taken in the same sequence, the figures for `CC(C)NC(=O)O[C@@H]1CC[C@H](c2cc(NC(=O)c3cnn(CCOCCOCCOCCOCCCc4ccc5c(c4)n(C)c(=O)n5C4CCC(=O)NC4=O)c3)[nH]n2)C1` (stereo partly shown) [I-77] were above 5000 nM and 100 to 1000 nM. With `CC(C)NC(=O)O[C@@H]1CC[C@H](c2cc(NC(=O)c3ccnn3CCOCCOCCOCCCc3ccc4c(c3)n(C)c(=O)n4C3CCC(=O)NC3=O)[nH]n2)C1` (stereo partly shown) [I-83], the DC50 was above 5000 nM on CDK1 and 10 to 100 nM on CDK2. For the compound `CC(C)NC(=O)O[C@@H]1CC[C@H](c2cc(NC(=O)c3cnn(C4CCC(CN(C)C5CCN(Cc6cccc7c6n(C)c(=O)n7C6CCC(=O)NC6=O)CC5)CC4)c3)n[nH]2)C1` (stereo partly drawn) [I-84, (1R,3S)-3-(5-(1-(4-(((1-((1-(2,6-dioxopiperidin-3-yl)-3-methyl-2-oxo-2,3-dihydro-1H-benzo[d]imidazol-4-yl)methyl)piperidin-4-yl)(methyl)amino)methyl)cyclohexyl)-1H-pyrazole-4-carboxamido)-1H-pyrazol-3-yl)cyclopentyl isopropylcarbamate], the DC50 at CDK2 was in the range of 1000 to 5000 nM. Consider `CC(C)NC(=O)O[C@@H]1CC[C@H](c2cc(NC(=O)c3cnn(CCOCCOCCCc4ccc5c(c4)n(C)c(=O)n5C4CCC(=O)NC4=O)c3)[nH]n2)C1` (stereo partly shown) [I-85], for which the “CDK2 DC50, (OVCAR-8, 24 h)” value at CDK2 was “inactive”.

Turning to `CC(C)NC(=O)O[C@@H]1CC[C@H](c2cc(NC(=O)c3ccnn3CCCCCCCCCc3ccc4c(c3)n(C)c(=O)n4C3CCC(=O)NC3=O)n[nH]2)C1` (stereo partly shown) [I-87], the “CDK2 DC50, (OVCAR-8, 24 h)” value at CDK2 is “inactive”. Same read-out and setting: for `CC(C)NC(=O)O[C@@H]1CC[C@H](c2cc(NC(=O)c3ccnn3CCCCCCCCCCCCc3cccc4c3n(C)c(=O)n4C3CCC(=O)NC3=O)n[nH]2)C1` (stereo partly shown) [I-89] the value was “inactive”. Regarding `CC(C)NC(=O)O[C@@H]1CC[C@H](c2cc(NC(=O)c3cnn(CCCCCCCCCc4ccc5c(c4)n(C)c(=O)n5C4CCC(=O)NC4=O)c3)n[nH]2)C1` (stereo partly shown) [I-91], the DC50 at CDK1 is above 5000 nM; on CDK2 it was 10 to 100 nM.

As to `CC(C)NC(=O)O[C@@H]1CC[C@H](c2cc(NC(=O)c3cnn(CCCCCCCCCc4cccc5c4n(C)c(=O)n5C4CCC(=O)NC4=O)c3)[nH]n2)C1` (stereo partly shown) [I-92], the DC50 was in the range of 1000 to 5000 nM at CDK1 and 10 to 100 nM on CDK2. Regarding `CC(C)NC(=O)O[C@@H]1CC[C@H](c2cc(NC(=O)Cc3cnn(C4CCC(CN(C)C5CCN(Cc6cccc7c6n(C)c(=O)n7C6CCC(=O)NC6=O)CC5)CC4)c3)n[nH]2)C1` (stereo partly shown) [I-93], at CDK2, the “CDK2 DC50, (OVCAR-8, 24 h)” value was “inactive”. With `CC(C)NC(=O)O[C@@H]1CC[C@H](c2cc(NC(=O)c3cnn(CCCCCCCCCCCc4ccc5c(c4)n(C)c(=O)n5C4CCC(=O)NC4=O)c3)[nH]n2)C1` (stereo partly shown) [I-96], the DC50 at CDK1 is above 5000 nM; on CDK2, 10 to 100 nM.
